Organism: Rattus norvegicus
Type: functional, Striatum, Membrane
Description: Inhibition constant of compound on R-(+)-125[I]-8 radioligand binding to rat striatal membranes

C=CCN1CC[C@]23c4c5ccc(O)c4O[C@H]2C(=O)CC[C@@]3(O)[C@H]1C5 [NALOXONE]
Ki: > 6 µM

NCCc1c[nH]c2ccc(O)cc12 [SEROTONIN]
Ki: > 5 µM

Reference: ChEMBL document CHEMBL1125639, “Synthesis and resolution of (+-)-7-chloro-8-hydroxy-1-(3'-iodophenyl)-3-methyl-2,3,4,5-tetrahydro- 1H-3- benzazepine (TISCH): a high affinity and selective iodinated ligand for CNS D1 dopamine receptor” (J Med Chem, 1991)
